Structures can show the parent of a compound that is named as a salt.
Tests used:
[1] = Verapamil Hydrochloride and PVAP chemical interaction (precipitate on combining saturated methanol solutions); assay type: physicochemical; details: 50 grams of each combined
Source text: To determine that the influence on the drug release is not due to the chemical interaction between Verapamil HCL and PVAP, following investigation was made.
• a. Purpose—To determine if change in drug release is due to polymer drug interaction, where increasing PVAP would potentially cause decreased drug release due to binding with the drug. • b. Method— • i. Dissolved 20 grams of Verapamil Hydrochloride in 52 grams of methanol to form a saturated solution. • ii. Dissolved 10 grams of PVAP in 52 grams of methanol to form a saturated solution. • iii. A clear solution was obtained for each sample. • iv. 50 grams of each solution was combined and examined for the presence of a precipitate. • v. […] Conclusion • A lack of chemical interaction has been shown between PVAP and the drug which is contra to some of previously published studies on the interactions of Verapamil HCl with enteric polymers. It also rules out that the reduction of drug release by using PVAP is due to a chemical interaction with Verapamil HCl.

[2] = Viscosity investigation (Brookfield viscometer DV-II+); assay type: physicochemical
Source text: • a. Dispersion Characterization • PVAP, HPMC, or Verapamil HCl was dispersed in 0.1N HCl or phosphate buffer, pH 6.8. Viscosity was characterized neat and in binary or tertiary mixtures. • b. Dry Blending Mixtures Characterization • i.

In the case of `COc1ccc(CCN(C)CCCC(C#N)(c2ccc(OC)c(OC)c2)C(C)C)cc1OC` (stereo not drawn) [Verapamil HCl - 48% solution, Verapamil Hydrochloride], the “presence of a precipitate (chemical interaction with PVAP)” value [1] is reported as “no precipitate formed”, the Viscosity ([2]; 0.1N HCl) is reported as 50.8 cP and the Viscosity ([2]; Phosphate Buffer, pH 6.8) is reported as 12.4 cP.
